Data taken from ChEMBL document CHEMBL4602617, “Discovery and optimization of heteroaryl piperazines as potent and selective PI3Kδ inhibitors” (Bioorg Med Chem Lett, 2020).

Assays:
Homo sapiens [1] = organism: Homo sapiens; assay: (§1) Selectivity index, ratio IC50 for inhibition of recombinant human full-length N-terminal His6-tagged p110beta/untagged full-length p85alpha expressed in baculovirus infected Sf21 cells to ratio IC50 for inhibition of recombinant human full-length N-terminal GST-tagged p110delta/untagged full-length p85alpha expressed in baculovirus infected Sf21 cells
Homo sapiens [2] = organism: Homo sapiens; assay: as §1, with “p110alpha/untagged” for “p110beta/untagged”
Homo sapiens [3] = organism: Homo sapiens; assay: Selectivity index, ratio IC50 for inhibition of recombinant human N-terminal His6-tagged full-length p120gamma expressed in Sf21 insect cells to ratio IC50 for inhibition of recombinant human full-length N-terminal GST-tagged p110delta/untagged full-length p85alpha expressed in baculovirus infected Sf21 cells
[4] = target: PI3-kinase p110-delta/p85-alpha (Homo sapiens, UniProt O00329); assay: Inhibition of recombinant human full-length N-terminal GST-tagged p110delta/untagged full-length p85alpha expressed in baculovirus infected Sf21 cells using PIP2 as substrate preincubated for 15 mins followed by substrate addition and measured after 1 hr by HTRF assay
[5] = Distribution coefficient, logD of compound by HPLC analysis; format: physicochemical; settings: octanol/water
[6] = Clearance in rat liver microsomes; format: ADME, Microsome; settings: read-out: CLH
[7] = Clearance in human liver microsomes; format: ADME, Microsome; settings: read-out: CLH
[8] = target: T1, Phosphatidylinositol 4,5-bisphosphate 3-kinase catalytic subunit delta isoform (Homo sapiens, UniProt O00329); assay: Inhibition of PI3K delta in human whole blood assessed as inhibition of anti-IgE-stimulated CysLt release in basophils preincubated for 30 mins followed by anti-IgE stimulation and measured after 20 mins; format: tissue-based
T1 sequence (O00329 whole entry): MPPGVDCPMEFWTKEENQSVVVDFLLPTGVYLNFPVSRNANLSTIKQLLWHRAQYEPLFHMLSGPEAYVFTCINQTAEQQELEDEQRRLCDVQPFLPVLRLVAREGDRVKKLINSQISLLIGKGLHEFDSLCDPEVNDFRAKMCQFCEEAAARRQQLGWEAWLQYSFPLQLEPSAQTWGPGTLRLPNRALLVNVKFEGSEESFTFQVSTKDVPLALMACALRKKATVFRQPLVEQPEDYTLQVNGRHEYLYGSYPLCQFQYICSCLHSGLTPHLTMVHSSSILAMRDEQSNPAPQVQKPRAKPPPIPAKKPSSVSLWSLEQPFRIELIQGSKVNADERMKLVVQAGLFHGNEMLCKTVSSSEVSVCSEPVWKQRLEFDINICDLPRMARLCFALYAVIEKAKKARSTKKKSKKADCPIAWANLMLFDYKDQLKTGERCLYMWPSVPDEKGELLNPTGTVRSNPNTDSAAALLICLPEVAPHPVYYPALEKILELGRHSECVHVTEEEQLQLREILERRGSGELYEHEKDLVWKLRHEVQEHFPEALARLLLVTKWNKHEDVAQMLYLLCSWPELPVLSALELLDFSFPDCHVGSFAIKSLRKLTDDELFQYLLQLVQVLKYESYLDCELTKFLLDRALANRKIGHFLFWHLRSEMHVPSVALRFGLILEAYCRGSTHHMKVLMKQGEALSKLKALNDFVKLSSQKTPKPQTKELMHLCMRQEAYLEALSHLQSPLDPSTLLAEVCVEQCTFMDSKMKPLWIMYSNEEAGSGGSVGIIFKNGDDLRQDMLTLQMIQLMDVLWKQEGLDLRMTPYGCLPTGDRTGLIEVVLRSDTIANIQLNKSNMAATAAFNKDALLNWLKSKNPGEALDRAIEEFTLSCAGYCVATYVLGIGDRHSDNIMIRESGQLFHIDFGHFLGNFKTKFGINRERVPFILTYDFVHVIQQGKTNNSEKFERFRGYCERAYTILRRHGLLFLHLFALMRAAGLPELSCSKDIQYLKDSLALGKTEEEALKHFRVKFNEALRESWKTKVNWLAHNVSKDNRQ

[9] = Half life in Wistar Han rat at 0.05 mg/kg, iv administered as cassette dose; format: ADME, organism-based; settings: in vivo
[10] = Volume of drug distribution in Wistar Han rat at 0.05 mg/kg, iv administered as cassette dose; format: ADME, organism-based; settings: in vivo
[11] = Protein binding in Wistar Han rat plasma at 0.05 mg/kg, iv administered as cassette dose; format: ADME, organism-based; settings: read-out: PPB (converted)
[12] = Clearance in Wistar Han rat plasma at 0.05 mg/kg, iv administered as cassette dose; format: ADME, organism-based
[13] = Unbound clearance in Wistar Han rat at 0.05 mg/kg, iv administered as cassette dose; format: ADME, organism-based; settings: in vivo
[14] = Intrinsic clearance in rat hepatocytes; format: ADME, cell-based, Hepatocyte; settings: read-out: CLH
[15] = Intrinsic clearance in human hepatocytes; format: ADME, cell-based, Hepatocyte; settings: read-out: CLH

Sequence of PI3-kinase p110-delta/p85-alpha (P27986 whole entry, one chain of several): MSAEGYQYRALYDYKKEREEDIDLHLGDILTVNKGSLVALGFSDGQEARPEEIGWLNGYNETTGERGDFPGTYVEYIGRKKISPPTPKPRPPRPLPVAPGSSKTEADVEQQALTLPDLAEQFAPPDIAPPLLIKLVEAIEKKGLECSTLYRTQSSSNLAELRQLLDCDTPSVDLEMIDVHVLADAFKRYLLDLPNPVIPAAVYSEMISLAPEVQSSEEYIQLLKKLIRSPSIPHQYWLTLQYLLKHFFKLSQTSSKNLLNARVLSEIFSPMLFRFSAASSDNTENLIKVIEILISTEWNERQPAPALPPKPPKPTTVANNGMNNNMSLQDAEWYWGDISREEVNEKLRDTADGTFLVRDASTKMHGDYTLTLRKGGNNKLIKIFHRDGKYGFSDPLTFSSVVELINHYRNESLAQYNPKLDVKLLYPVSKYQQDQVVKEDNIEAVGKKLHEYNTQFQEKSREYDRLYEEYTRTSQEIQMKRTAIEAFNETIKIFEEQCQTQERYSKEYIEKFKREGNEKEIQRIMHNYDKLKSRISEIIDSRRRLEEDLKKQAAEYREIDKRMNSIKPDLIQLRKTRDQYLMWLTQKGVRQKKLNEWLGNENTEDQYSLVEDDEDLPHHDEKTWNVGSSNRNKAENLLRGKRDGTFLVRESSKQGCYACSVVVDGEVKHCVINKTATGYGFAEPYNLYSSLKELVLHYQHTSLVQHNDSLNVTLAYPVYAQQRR

Compound | Ratio IC50 (Homo sapiens [1]) | Ratio IC50 (Homo sapiens [2]) | Ratio IC50 (Homo sapiens [3]) | IC50 [4] [nM] | logD [5] | CLint scaled [6] [mL/min/kg] | CLint scaled [7] [mL/min/kg] | IC50 [8] [nM] | half-life [9] [min] | Vd [10] [L/kg] | fraction unbound [11] | clearance [12] [mL/min/kg] | CL free [13] [mL/min/kg] | CLint scaled [14] [mL/min/kg] | CLint scaled [15] [mL/min/kg]
N#Cc1cnc(-c2cnc3[nH]ccc3c2)nc1N1C[C@@H]2C[C@H]1CN2c1cccc(F)c1 | > 14 | 8 | > 14 | 918 | – | – | – | – | – | – | – | – | – | – | –
N#Cc1cnc(-c2cccnc2)nc1N1C[C@@H]2C[C@H]1CN2c1cccc(Cl)c1 | 14 | 62 | > 105 | 474 | 3.82 | – | – | – | – | – | – | – | – | – | –
C[C@@H]1CN(c2nc(-c3cnn(C)c3)ncc2C#N)CCN1c1cccc(F)c1 | > 76 | > 76 | > 76 | 165 | 3.3 | – | – | – | – | – | – | – | – | – | –
N#Cc1cnc(-c2ccnc3[nH]ccc23)nc1N1C[C@@H]2C[C@H]1CN2c1cccc(F)c1 | 93 | 76 | 225 | 56 | 3.4 | – | – | – | – | – | – | – | – | – | –
C[C@@H]1CN(c2cnc(C#N)c(-c3cnn(C)c3)n2)CCN1C(=O)C1CC1 | > 384 | > 384 | > 384 | 33 | 1.8 | < 36 | < 16 | 219 | – | – | – | – | – | – | –
Cn1cc(-c2ncc(C#N)c(N3C[C@@H]4C[C@H]3CN4c3cccc(F)c3)n2)cn1 | 308 | 160 | > 407 | 31 | 3.1 | 1080 | 76 | 2960 | 66 | 4.7 | 0.014 | 68 | 4857 | – | –
N#Cc1cnc(-c2cccnc2)nc1N1C[C@@H]2C[C@H]1CN2c1cccc(F)c1 | > 27 | > 27 | > 27 | 364 | 3.43 | – | – | – | 36 | 3.6 | – | 90 | – | 234 | 69
Cn1cc(-c2ncc(C#N)c(N3C[C@@H]4C[C@H]3CN4C(=O)C3CC3)n2)cn1 | 78 | > 78 | 78 | 161 | 1.1 | < 36 | < 16 | 258 | 12 | 0.9 | 0.54 | 46 | 85 | – | –
Cn1cc(-c2ncc(C#N)c(N3C[C@@H]4C[C@H]3CN4CC3CC3)n2)cn1 | – | – | – | 1430 | 1.5 | 158 | < 16 | 6970 | – | – | – | – | – | – | –
C[C@@H]1CN(c2nc(-c3cnn(C)c3)ncc2C#N)CCN1C(=O)C1CCC1 | > 33 | > 33 | > 33 | 374 | 2 | < 36 | < 16 | 1560 | – | – | – | – | – | – | –
Cn1cc(-c2ncc(C#N)c(N3CCN(c4cccc(F)c4)C(C)(C)C3)n2)cn1 | > 8 | > 8 | > 8 | 1520 | 3.6 | 2050 | 91 | – | – | – | – | – | – | – | –
C[C@@H]1CN(c2nc(-c3cnn(C)c3)cnc2C#N)CCN1C(=O)C1CC1 | > 67 | > 67 | > 67 | 185 | 1.9 | 39 | 50 | 737 | – | – | – | – | – | – | –
Cn1cc(-c2ncc(C#N)c(N3C[C@@H]4C[C@H]3CN4S(=O)(=O)C3CC3)n2)cn1 | 10 | > 10 | 10 | 1190 | 1.6 | < 36 | < 16 | 4120 | – | – | – | – | – | – | –
CCNC(=O)N1C[C@@H]2C[C@H]1CN2c1nc(-c2cnn(C)c2)ncc1C#N | 6 | > 6 | 6 | 2190 | 0.8 | – | – | – | – | – | – | – | – | – | –
C[C@@H]1C[C@H]1C(=O)N1CCN(c2nc(-c3cnn(C)c3)ncc2C#N)C[C@H]1C | > 394 | > 394 | > 394 | 32 | 1.9 | 54 | < 16 | 187 | – | – | – | – | – | – | –
CCC(=O)N1CCN(c2nc(-c3cnn(C)c3)ncc2C#N)C[C@H]1C | > 48 | > 48 | > 48 | 263 | 1.4 | < 36 | < 16 | 2320 | – | – | – | – | – | – | –
CC1CC1C(=O)N1CCN(c2nc(-c3cnn(C)c3)ncc2C#N)C[C@H]1C (mixture of isomers) | > 159 | > 159 | 159 | 79 | 2 | < 36 | < 16 | 557 | – | – | – | – | – | – | –
Cn1cc(-c2ncc(C#N)c(N3CCN(c4cccc(F)c4)CC3)n2)cn1 | > 8 | > 8 | > 8 | 1600 | 3.2 | – | – | – | – | – | – | – | – | – | –
C[C@@H]1CN(c2nc(-c3cnn(C)c3)ncc2C#N)CCN1C(=O)C1CC1 | > 116 | > 116 | > 116 | 108 | 1.5 | < 36 | 21 | 329 | – | – | – | – | – | – | –
Cn1cc(-c2ncc(C#N)c(N3CC4CCC(C3)N4c3cccc(F)c3)n2)cn1 | > 12 | > 12 | > 12 | 1030 | 3.3 | 529 | 62 | – | – | – | – | – | – | – | –
N#Cc1cnc(N2Cc3cn[nH]c3C2)nc1N1C[C@@H]2C[C@H]1CN2c1cccc(F)c1 | > 146 | > 146 | > 146 | 86 | 2.9 | – | – | – | – | – | – | – | – | – | –
C[C@@H]1CN(c2ncc(C#N)c(-c3cnn(C)c3)n2)CCN1C(=O)C1CC1 | > 583 | > 583 | 764 | 21 | 2 | 39 | < 16 | 764 | – | – | – | – | – | – | –
C[C@@H]1CN(c2nc(-c3cnn(C)c3)ncc2C#N)CCN1C(=O)C1(C)CC1 | > 12 | > 12 | > 12 | 1050 | 1.7 | < 36 | < 16 | 5710 | – | – | – | – | – | – | –
N#Cc1cnc(-c2ccccc2)nc1N1C[C@@H]2C[C@H]1CN2c1cccc(F)c1 | – | – | – | > 10000 | 4.5 | – | – | – | – | – | – | – | – | – | –
